From patent US9090651B2, “Helix 12 directed pharmaceutical products” (ENDORECHERCHE, INC., priority 2004, dated 2015)

Tests used:
Human Androgen Receptor = target: T1, Human Androgen Receptor (Homo sapiens, UniProt P10275); experiment: Androgen receptor binding assay (hydroxylapatite, [3H]R1881, cytosol of transfected HEK-293 cells); conditions: % RBA=100×IC50 R1881/IC50 compound, transfected cells
T1 sequence (P10275 1-920): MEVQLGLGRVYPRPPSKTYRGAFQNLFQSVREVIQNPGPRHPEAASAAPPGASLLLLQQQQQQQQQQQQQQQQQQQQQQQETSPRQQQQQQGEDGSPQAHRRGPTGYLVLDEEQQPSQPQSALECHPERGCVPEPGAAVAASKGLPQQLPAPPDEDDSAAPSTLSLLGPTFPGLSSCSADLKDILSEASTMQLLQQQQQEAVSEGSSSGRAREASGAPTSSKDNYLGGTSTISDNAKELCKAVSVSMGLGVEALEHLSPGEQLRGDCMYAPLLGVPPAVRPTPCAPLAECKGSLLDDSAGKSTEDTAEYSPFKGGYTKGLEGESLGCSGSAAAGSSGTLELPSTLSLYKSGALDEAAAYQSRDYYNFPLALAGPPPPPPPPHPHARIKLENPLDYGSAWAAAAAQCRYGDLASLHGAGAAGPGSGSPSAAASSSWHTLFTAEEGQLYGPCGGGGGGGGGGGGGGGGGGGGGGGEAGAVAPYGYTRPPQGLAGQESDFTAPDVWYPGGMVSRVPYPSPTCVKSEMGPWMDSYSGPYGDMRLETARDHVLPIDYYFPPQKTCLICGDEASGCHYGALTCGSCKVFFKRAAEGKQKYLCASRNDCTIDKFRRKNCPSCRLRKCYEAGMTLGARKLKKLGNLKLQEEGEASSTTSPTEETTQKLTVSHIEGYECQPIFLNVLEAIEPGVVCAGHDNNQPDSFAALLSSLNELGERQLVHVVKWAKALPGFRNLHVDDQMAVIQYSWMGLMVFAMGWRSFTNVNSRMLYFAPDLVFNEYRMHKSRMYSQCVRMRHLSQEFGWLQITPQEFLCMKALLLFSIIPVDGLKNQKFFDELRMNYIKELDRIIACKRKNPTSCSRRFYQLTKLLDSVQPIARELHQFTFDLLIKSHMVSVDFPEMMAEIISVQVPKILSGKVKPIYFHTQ

rat prostate = experiment: Systemic antiandrogenic activity, orchidectomized immature male rats with DHT implant: prostate weight; format: in vivo
Protocol: (§1) Immature male rats (Crl:CD(SD)Br) 22 to 24-day old were obtained from Charles-River, Inc. (St-Constant, Quebec, Canada) and housed up to 5 per cage in plastic bins in a temperature (23±1° C.)- and light (12 h light/day, lights on at 7 h15)-controlled environment. The rats were fed rodent chow and tap water ad libitum. The day following their arrival, the animals were orchidectomized (CX) under Isoflurane anesthesia via scrotal route and randomly assigned to groups of 5 animals.
(§2) Compounds were solubilized (when possible) in dimethylsulfoxide (DMSO, 10% final concentration) and administered as suspension in 0.4% methylcellulose. […] One group of animals received the antiandrogen Flutamide as reference. The animals were killed by cervical dislocation under isoflurane anesthesia on the 8th morning following castration. The ventral prostate and seminal vesicles were rapidly dissected and weighed.
(§3) W is the weight of the prostate or the seminal vesicle.

rat seminal vesicle = experiment: Systemic antiandrogenic activity, orchidectomized immature male rats with DHT implant: seminal vesicle weight; format: in vivo
Protocol: as §1, §2, §3

[1] = tested on: ventral prostate, seminal vesicle and levator ani; experiment: In vivo assessment of SARM effect on immature rats; design: species or system rat
Protocol: as §1
as §2, with “To evaluate the antiandrogenic activity, tested compounds were administered subcutaneously once daily at a dose of 0.5 mg/animal for antiandrogenitic activity or 0.2 mg/animal for androgenic activity for 7 days (SD 1 to 7). Compounds” for “Compounds”

[2] = 0.5 mg/day s.c., DHT 1-cm length implant
[3] = 0.2 mg/day s.c., absence of exogenous androgens, immature rats

For `CC(NC1CCCC1)c1cccc(OCC[C@]23CCC4C5CCC(=O)C=C5C[C@H](C)C4C2CC[C@@]3(C)O)c1` (stereo in doubt) [EM-7216], the “Androgen Receptor Binding (%) Human RBA R1881 = 100” value (Human Androgen Receptor) was 77%, the “inhibition of the stimulated weight of ventral prostate” value (rat prostate; [2]) was 28% and the inhibition in vivo at 0.5 mg (rat prostate; Rattus norvegicus, sc, 168 h, read-out: IN VIVO Rat s.c. (+DHT) Prostate % inhibition, s.c., 0.5 mg/animal once daily for 7 days, +DHT) was 28%. The “inhibition of the stimulated weight of seminal vesicle” value (rat seminal vesicle; [2]) was “no inhibiting effect”, the inhibition in vivo at 0.5 mg (rat seminal vesicle; Rattus norvegicus, sc, 168 h, read-out: IN VIVO Rat s.c. (+DHT) SV % inhibition, s.c., 0.5 mg/animal once daily for 7 days, +DHT) was 0% and the “stimulation of the weight of levator ani” value [1, 3] was 238. For the same compound, the “stimulation of the weight of seminal vesicle” value [1, 3] was 200%, the “stimulation of the weight of ventral prostate” value [1, 3] was 370% and the “inhibition of the stimulated weight of levator ani” value [1, 2] was “no inhibiting effect”.
